Data taken from patent US10550091B2, “1,4,5-substituted 1,2,3-triazole analogues as antagonists of the pregnane X receptor” (ST. JUDE CHILDREN'S RESEARCH HOSPITAL, priority 2016, dated 2020).

Experiments:
[1] = system: LS 180 cells stably overexpressed hPXR; test: sensitization of colon cancer cells to anti-cancer drugs (viability); assay type: cell-based, human; conditions: absence vs presence of 10 μM test compound, 96 h
Protocol: FIGS. 2A-2D show representative data for a representative disclosed compound showing that the tested compound sensitizes colon cancer cells to representative anti-cancer drugs. […] LS 180 cells stably overexpressed hPXR were treated with serial dilutions of paclitaxel (PTX; see FIG. 2A), docetaxel (TXT; see FIG. 2B), vinblastine (VBL; see FIG. 2C), or vincristine (VCR; see FIG. 2D) in the absence and presence of 10 μM of the test compound as indicated for 96 h. Values of the viability of compound-treated cells were expressed as a percentage of that of DMSO-treated cells, and drug concentration is expressed in a log scale. Data at each point represents mean±SEM from quadruplicate measurements.

[2] = system: CYP3A4 promoter reporter; test: CYP3A4 promoter reporter activity in hPXR-CYP3A4-luc reporter mice (bioluminescence imaging); assay type: in vivo, mouse; conditions: RIF 10 mg/kg plus test compound 150 mg/kg every 24 h for 2 days; imaging 10 h after last treatment
Protocol: Individual mouse received 3 rounds of sequential treatment of vehicle control (Vehicle), RIF (10 mg/kg) and RIF (10 mg/kg) plus the test compound (150 mg/kg) every 24 h for 2 days, respectively, with a washout period of 72-hour between two rounds of treatment. The luciferase activity in these reporter mice was recorded by bioluminescence imaging 10 h after the last treatment of each round, and the induction of CYP3A4 promoter reporter activity was calculated as described in Examples. Each data point represents the induction of CYP3A4 promoter reporter activity by the treatment in an individual mouse, and dos lines indicate the CYP3A4 promoter reporter activity change in individual mouse after following round of treatment. p values are indicated between the two treatment compared by paired t test.
10 hours after the last treatment of each round, the mice were imaged as described above. Uniform regions of interest were drawn around the liver, and total photon flux was analyzed with Living Image 3.2 software (Xenogen). The induction of CYP3A4-luc reporter activity was calculated using the imaging from the same mouse as follows: induction rate=total photon flux (after treatment)/total photon flux (before treatment).

[3] = system: primary human hepatocytes (PHHs); test: midazolam metabolism in primary human hepatocytes after hPXR agonist pretreatment; assay type: cell-based; conditions: PHHs pretreated 72 hr with DMSO, 1.6 μM RIF, 0.5 or 5 μM PTX, with 10 μM test compound; then 3.3 μM MDZ 4 h
Protocol: Midazolam and 1-OH midazolam were from BD Gentest. Midazolam-D4 maleate (internal standard, IS) was from Cerilliant; Paclitaxel and 3′-p-Hydroxypaclitaxel were from Sigma; and 6α-hydroxy Paclitaxel was from Cayman Chemical. 100 μl of reaction medium at each different time point was collected and 200 μl of acetonitrile containing IS was added. This solution was then vigorously mixed for 10 min and centrifuged at 10,000 rpm for 10 min. Calibration and quality control samples were prepared. 5 μl of the samples was injected onto a Waters Acquity UPLC BEH C18 column (2.1×50 mm, 1.7 μm), using a Waters Acquity UPLC system. Chromatographic separation was performed by gradient elution at a constant flow rate of 1 mL/min for 15 min. The gradient consisted of 0.1% formic acid water (mobile phase A) and methanol (mobile phase B). […] Nitrogen was applied as curtain, collision and drying gas at 60 psi. Declustering potentials, entrance potential and collision energy was as follows: 120 V, 12 V and 35 V for MDZ; 70 V, 12 V and 30 V for 1-OH MDZ; and 120 V, 12 V and 37 V for IS.

[4] = system: hPXR-tg mice; test: loss of righting reflex (LORR) assay in hPXR transgenic mice; assay type: in vivo, mouse; conditions: RIF 10 mg/kg plus test compound 200 mg/kg every 24 h for three days
Protocol: Loss of righting reflex (LORR) duration was recorded as described in Examples to measure metabolism of the anesthetic ([…]) in hPXR-tg, mice before and after treatment with vehicle, RIF, and RIF plus the test compound as indicated. Each data point represents LORR duration in an individual mouse; lines indicate LORR duration change in individual mouse before and after treatment. P values indicate comparison of values by paired t test.
Mice were intraperitoneally injected with 250 mg/kg of 2,2,2-tribromoethanol, which is metabolically cleared only via mouse CYP3A11. After the mice lost their righting reflex, they were placed on their backs under a heat lamp. The duration of LORR was measured as the time from the start of LORR to recovery (i.e., when mice could right themselves after being placed on their backs twice within 1 min). A baseline LORR duration was established for each mouse at the administered dose of 2,2,2-tribromoethanol. […] The paired Student's t-test was used to compare LORR duration between baseline and after treatment. A P value <0.05 was considered to indicate a significant difference between compared groups.

[5] = system: hPXR; test: liver CYP3A expression in hPXR-tg mice; assay type: in vivo, mouse; conditions: RIF 10 mg/kg plus test compound 200 mg/kg, 72 h
Protocol: Briefly, mouse liver Cyp3a11 mRNA was analyzed by real-time PCR in hPXR-tg mice treated with vehicle control (Vehicle), RIF (10 mg/kg) or RIF (10 mg/kg) plus test compound (200 mg/kg) for 72 h. Each data point represents the level of Cyp3a11 mRNA (FIG. 3A) or protein (FIG. 3B) in an individual mouse; lines indicate the mean value for 3-7 mice per group.
hPXR-tg mice were generated previously (Xie et al., 2000). Five mice in each group were dosed orally with vehicle control or 10 mg/kg RIF, every 24 h for three days. Eight hours after the last dose, the animals were euthanized by C02 and liver tissues were harvested. A piece of each liver was preserved in RNAlater solution (Invitrogen) at 4° C. for mRNA isolation. The remaining tissue was instantly frozen in liquid nitrogen and stored at −80° C. for total protein extraction. […]

[6] = system: primary human hepatocytes (PHHs); test: paclitaxel metabolism in primary human hepatocytes; assay type: cell-based; conditions: 1 μM PTX with 10 μM test compound, 24 and 48 hr
Protocol: FIGS. 1A-1D show representative data for a representative disclosed compound showing that the tested compound modulates the activity of an hPXR agonist in primary human hepatocytes (“PHHs”). […] PHHs were pretreated with DMSO (0.1%), 1.6 μM of rifampicin (RIF), 0.5 μM of paclitaxel (PTX) or 5 μM of PTX, respectively, in the absence and presence of 10 μM of the test compound. After 72 hr, PHHs then received 3.3 μM of midazolam (MDZ) treatment for 4 h. The concentrations of 1′-OH MDZ (MDZ metabolite) in the media of each pretreatment condition were determined using LC/MS/MS as described in the Examples. […] PHHs were also treated with 1 μM of PTX in the absence and presence of 10 μM of the test compound, and then the concentrations of major PTX metabolites, 3-OH PTX (by CYP3A4) and 6α-OH PTX (by CYP2C8), were determined using LC/MS/MS at 24 hr and 48 hr of treatment, respectively. The concentrations of 3-OH PTX and 6α-OH PTX are shown in FIGS. 1B and 1C, respectively.
Midazolam and 1-OH midazolam were from BD Gentest. Midazolam-D4 maleate (internal standard, IS) was from Cerilliant; Paclitaxel and 3′-p-Hydroxypaclitaxel were from Sigma; and 6α-hydroxy Paclitaxel was from Cayman Chemical. 100 μl of reaction medium at each different time point was collected and 200 μl of acetonitrile containing IS was added. […] Calibration and quality control samples were prepared. […]

## COc1ccc(OC)c(-n2nnc(S(=O)(=O)c3ccc(C(C)(C)C)cc3)c2C)c1 [4-((4-(tert-butyl)phenyl)sulfonyl)-1-(2,5-dimethoxyphenyl)-5-methyl-1H-1,2,3-triazole]
[1]
  apparent IC50 for PTX, TXT, VBL, or VCR: significantly higher in the absence of the test compound
[2]
  RIF-induced expression of the reporter under the control of the CYP3A4 promoter: significantly reduced
[3]
  metabolism of MDZ (1′-OH MDZ in the media): essentially blocked
[4]
  RIF-induced metabolism of the anesthetic, by LORR duration: significantly inhibited
[5]
  hPXR-mediated increase in CYP3A expression (liver Cyp3a11 mRNA, CYP3A protein): inhibits the hPXR-mediated increase in CYP3A expression
[6]
  metabolism of PTX to 3-OH PTX (by CYP3A4): effectively blocked
  metabolism of PTX to 6α-OH PTX (by CYP2C8): effectively blocked
